# Test results reported in patent publication EP0067711A2, “New 1-benzyl-3,4-dihydro-isoquinoline derivative” (CHINOIN Gyogyszer és Vegyészeti Termékek Gyára RT., priority 1981, dated 1982).
# Tests used:
# acute toxicity on mice = conditions: mouse, in vivo, po
# Description: (§1) The acute toxicity of the compound of the Formula I is characterized by the data enumerated in Table 3.
# [1] = tested on: haemodynamic and cardiovascular system; experiment: general effects on the haemodynamic and cardiovascular system in pentobarbital anaesthetized dogs; format: in vivo; set-up: A. vertebralis flow, Changed value: unit not given here; conditions: 2 mg/kg i.v.
# acute toxicity on rats = conditions: rat, in vivo
# Description: as §1
# [2] = tested on: acute coronary insufficiency induced by vasopressine; experiment: anti-angina activity: inhibition of vasopressine-induced acute coronary insufficiency (rise of T-wave on ECG), method of Papp and Szekeres; format: in vivo, rats belonging to the CFY strain; conditions: vasopressine 2 IU/kg i.v., pentobarbital anaesthetized CFY rats; papaverin = 1
# [3] = tested on: electric fibrillation threshold of the auricle and ventricle; experiment: antiarrhythmial effect: change of electric fibrillation threshold in chloralose-urethane anaesthetized cats; format: in vivo; conditions: 2 mg/kg i.v.
# Method: The antiarrhythmial effect is determined on chloralose-urethane anaesthetized cats [500/300 mg/kg i.p.] by measuring the changes of the electric fibrillation threshold of the auricle and ventricle respectively [method of Szekeres, Méhes and Papp: Brit. 0. Pharmacol. 17, 167 (1961) and that of Szekeres and Papp: Hdb. exp. Pharmacol. 16/3, 131 (1975) respectively]. The general effects exerted on the haemodynamic and cardiovascular system are tested on pentobarbital anaesthetized dogs (35 mg/kg i.v.).
smiles,measurement,setting,value
"CCOc1ccc(CC2=NCCc3cc(OCC)c(OCC)cc32)cc1O [Formula I, 6,7-diethoxy-1-(4-ethoxy-3-hydroxy-benzyl)-3,4-dihydro-isoquinoline]",LD50,acute toxicity on mice; p.o. on mice ♀,165 mg/kg
same,LD50,acute toxicity on mice; p.o. on mice ♂,269 mg/kg
same,"A. carotis flow, Duration of effect",[1],7 min
same,"A. carotis flow, Percental difference",[1],+27
same,"A. carotis resistance, Duration of effect",[1],7 min
same,"A. carotis resistance, Percental difference",[1],-13
same,"A. femoralis flow, Duration of effect",[1],3 min
same,"A. femoralis flow, Percental difference",[1],+44
same,"A. femoralis resistance, Duration of effect",[1],3 min
same,"A. femoralis resistance, Percental difference",[1],-45
same,"A. vertebralis flow, Duration of effect",[1],2 min
same,"A. vertebralis flow, Percental difference",[1],+51
same,"A. vertebralis resistance, Duration of effect",[1],2 min
same,"A. vertebralis resistance, Percental difference",[1],-45
same,"Arterial blood pressure, Duration of effect",[1],5 min
same,"Arterial blood pressure, Percental difference",[1],-22
same,"Contractibility of the left ventricle (dP/dt), Duration of effect",[1],2 min
same,"Contractibility of the left ventricle (dP/dt), Percental difference",[1],-17
same,"Coronary flow, Duration of effect",[1],16 min
same,"Coronary flow, Percental difference",[1],+36
same,"Coronary resistance, Duration of effect",[1],15 min
same,"Coronary resistance, Percental difference",[1],-34
same,"Efficiency of cardial function, Duration of effect",[1],6 min
same,"Efficiency of cardial function, Percental difference",[1],+45
same,"Frequence volume, Duration of effect",[1],35 min
same,"Frequence volume, Percental difference",[1],+60
same,"Function of the left ventricle, Duration of effect",[1],7 min
same,"Function of the left ventricle, Percental difference",[1],-20
same,"Heart frequence/min, Duration of effect",[1],31 min
same,"Heart frequence/min, Percental difference",[1],-22
same,"Minute volume, Duration of effect",[1],4 min
same,"Minute volume, Percental difference",[1],+11
same,"Myocardial oxygenization (O2 supply per O2 consumption), Duration of effect",[1],30 min
same,"Myocardial oxygenization (O2 supply per O2 consumption), Percental difference",[1],+74
same,"Oxygen consumption of the left ventricle, Duration of effect",[1],22 min
same,"Oxygen consumption of the left ventricle, Percental difference",[1],-29
same,"Total peripherial resistance, Duration of effect",[1],5 min
same,"Total peripherial resistance, Percental difference",[1],-23
same,"Efficiency of cardial function, Changed value","[1]; average ± S.E., basic value 0.11 ± 0.02",0.16 ± 0.02 mkg/ml/100 g
same,"Coronary resistance, Changed value","[1]; average ± S.E., basic value 1.16 ±0.06",0.76 ± 0.06 Hgmm/ml/min/100 g
same,"Function of the left ventricle, Changed value","[1]; average ± S.E., basic value 1.24 ± 0.08",0.99 ± 0.16 mkg/min
same,"Myocardial oxygenization (O2 supply per O2 consumption), Changed value","[1]; average ± S.E., basic value 1.70 ± 0.07",2.95 ± 0.21
same,"A. carotis resistance, Changed value","[1]; average ± S.E., basic value 2.33 ± 0.23",2.02 ± 0.32 Hgmm/ml/min
same,"A. vertebralis resistance, Changed value","[1]; average ± S.E., basic value 3.28 ± 0.33",1.81 ± 0.17 Hgmm/ml/min
same,"A. femoralis resistance, Changed value","[1]; average ± S.E., basic value 4.84 ± 0.86",2.66 ± 0.42 Hgmm/ml/min
same,"Frequence volume, Changed value","[1]; average ± S.E., basic value 5.5 ± 0.3",8.8 ± 0.9 mL
same,"Oxygen consumption of the left ventricle, Changed value","[1]; average ± S.E., basic value 11.6 ± 0.9",8.2 ± 1.2 ml/min/100 g
same,"A. femoralis flow, Changed value","[1]; average ± S.E., basic value 34 ± 7",49 ± 10 mL/min
same,"A. vertebralis flow, Changed value","[1]; average ± S.E., basic value 43 ± 6",65 ± 9
same,"A. carotis flow, Changed value","[1]; average ± S.E., basic value 70 ± 7",89 ± 13 mL/min
same,"Coronary flow, Changed value","[1]; average ± S.E., basic value 95 ± 5",129 ± 9 ml/min/100 g
same,"Arterial blood pressure, Changed value","[1]; average ± S.E., basic value 121 ± 5",94 ± 4 Hgmm
same,"Heart frequence/min, Changed value","[1]; average ± S.E., basic value 146 ± 8",114 ± 9 min⁻¹
same,"Minute volume, Changed value","[1]; average ± S.E., basic value 875 ± 42",975 ± 34 mL/min
same,"Contractibility of the left ventricle (dP/dt), Changed value","[1]; average ± S.E., basic value 5105 ± 434",4248 ± 865 Hgmm/sec
same,"Total peripherial resistance, Changed value","[1]; average ± S.E., basic value 10652 ± 991",8185 ± 748 dyn. sec. cm^-5
same,LD50,"acute toxicity on rats; iv, i.v. on rats ♀",24.9 mg/kg
same,LD50,"acute toxicity on rats; iv, i.v. on rats ♂",23 mg/kg
same,LD50,"acute toxicity on rats; po, p.o. on rats ♀",625 mg/kg
same,LD50,"acute toxicity on rats; po, p.o. on rats ♂",493 mg/kg
same,anti-angina activity related to that of papaverin,[2],1.40
same,"Arterial blood pressure, Duration of effect",[3],9 min
same,"Arterial blood pressure, Percental difference",[3],-43
same,"Auricle fibrillation threshold, Duration of effect",[3],11 min
same,"Auricle fibrillation threshold, Percental difference",[3],+58
same,"Ventricle fibrillation threshold, Duration of effect",[3],13 min
same,"Ventricle fibrillation threshold, Percental difference",[3],+25
same,"Auricle fibrillation threshold, Changed value","[3]; average ± S.E., basic value 0.73 ± 0.10",1.15 ± 0.11 mA
same,"Ventricle fibrillation threshold, Changed value","[3]; average ± S.E., basic value 2.07 ± 0.10",2.58 ± 0.09 mA
same,"Arterial blood pressure, Changed value","[3]; average ± S.E., basic value 139 ± 5",79 ± 8 Hgmm
